Reference: article PMC9719519, “Non-classical ferroptosis inhibition by a small molecule targeting PHB2” (Nature Communications, 2022)

Key:
Assay in all cases: biochemical
Parameters in all cases: Eurofins recombinant human kinase profiling, remaining kinase activity as % of control, 10 uM ATP
Settings in all cases: ATP 10 uM; read-out: %Ctrl@10 μM
[1] = target: T1, ZAK(h) (Homo sapiens, UniProt Q9NYL2)
T1 construct: gene MAP3K20
Summary of the method: (§1)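 Recombinant human kinases, 401 in total, screened using an outsourced kinase profiling assay.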

[2] = target: NEK3(h) (Homo sapiens, UniProt P51956)
Summary of the method: as §1

[3] = target: GRK3(h) (Homo sapiens, UniProt P35626)
Summary of the method: as §1

[4] = target: MAK(h) (Homo sapiens, UniProt P20794)
Summary of the method: as §1

[5] = target: Plk3(h) (Homo sapiens, UniProt Q9H4B4)
Chain of Plk3(h) (Q9H4B4 whole entry): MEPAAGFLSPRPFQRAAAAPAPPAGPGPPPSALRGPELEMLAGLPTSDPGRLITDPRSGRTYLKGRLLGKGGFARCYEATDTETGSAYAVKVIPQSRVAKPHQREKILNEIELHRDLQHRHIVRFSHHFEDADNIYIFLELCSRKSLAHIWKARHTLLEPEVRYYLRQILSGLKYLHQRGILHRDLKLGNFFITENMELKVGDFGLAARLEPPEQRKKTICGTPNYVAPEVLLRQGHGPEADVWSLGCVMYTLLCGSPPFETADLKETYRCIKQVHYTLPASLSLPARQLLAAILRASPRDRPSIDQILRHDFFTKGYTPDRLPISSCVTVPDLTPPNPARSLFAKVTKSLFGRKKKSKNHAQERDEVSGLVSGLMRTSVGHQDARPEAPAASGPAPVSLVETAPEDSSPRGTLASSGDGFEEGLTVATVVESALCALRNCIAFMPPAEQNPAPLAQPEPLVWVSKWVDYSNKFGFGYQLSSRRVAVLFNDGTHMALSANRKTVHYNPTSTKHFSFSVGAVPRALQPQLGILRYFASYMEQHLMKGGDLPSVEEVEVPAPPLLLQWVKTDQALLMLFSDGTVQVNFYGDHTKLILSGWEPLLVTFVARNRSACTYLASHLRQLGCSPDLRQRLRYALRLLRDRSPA
Summary of the method: as §1

[6] = target: TNIK(h) (Homo sapiens, UniProt Q9UKE5)
Summary of the method: as §1

[7] = target: T2, GCK(h) (Homo sapiens, UniProt Q12851)
T2 construct: gene MAP4K2
Summary of the method: as §1

[8] = target: Plk4(h) (Homo sapiens, UniProt O00444)
Chain of Plk4(h) (O00444 whole entry): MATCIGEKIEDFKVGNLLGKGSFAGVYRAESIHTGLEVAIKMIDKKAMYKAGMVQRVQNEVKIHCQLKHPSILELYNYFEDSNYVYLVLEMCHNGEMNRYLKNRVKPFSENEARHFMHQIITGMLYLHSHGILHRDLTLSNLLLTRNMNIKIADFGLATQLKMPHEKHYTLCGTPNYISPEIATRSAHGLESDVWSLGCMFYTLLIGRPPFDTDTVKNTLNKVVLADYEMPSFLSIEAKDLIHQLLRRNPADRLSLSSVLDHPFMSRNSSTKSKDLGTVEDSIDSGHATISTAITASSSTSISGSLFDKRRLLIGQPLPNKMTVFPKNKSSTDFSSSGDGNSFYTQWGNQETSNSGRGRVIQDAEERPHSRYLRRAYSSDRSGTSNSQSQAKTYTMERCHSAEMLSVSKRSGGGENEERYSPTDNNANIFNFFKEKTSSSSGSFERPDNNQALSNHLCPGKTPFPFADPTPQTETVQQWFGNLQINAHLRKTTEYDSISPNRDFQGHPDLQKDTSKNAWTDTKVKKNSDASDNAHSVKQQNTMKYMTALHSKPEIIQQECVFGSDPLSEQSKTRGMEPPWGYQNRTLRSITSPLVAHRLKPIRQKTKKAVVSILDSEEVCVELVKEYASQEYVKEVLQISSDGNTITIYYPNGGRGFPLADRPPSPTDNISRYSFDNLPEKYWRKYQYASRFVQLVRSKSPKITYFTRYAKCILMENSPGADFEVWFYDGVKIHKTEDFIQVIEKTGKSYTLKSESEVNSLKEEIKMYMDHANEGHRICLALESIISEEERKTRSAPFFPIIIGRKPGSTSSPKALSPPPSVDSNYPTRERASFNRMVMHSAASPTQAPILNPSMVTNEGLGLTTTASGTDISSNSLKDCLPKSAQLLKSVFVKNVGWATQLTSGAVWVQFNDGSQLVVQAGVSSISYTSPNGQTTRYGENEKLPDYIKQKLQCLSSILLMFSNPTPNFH
Summary of the method: as §1

[9] = target: PAK2(h) (Homo sapiens, UniProt Q13177)
Summary of the method: as §1

[10] = target: T3, CHK2(h) (Homo sapiens, UniProt O96017)
T3 construct: gene CHEK2
Summary of the method: as §1

[11] = target: T4, IRR(h) (Homo sapiens, UniProt P14616)
T4 construct: gene INSRR
T4 sequence (P14616 whole entry): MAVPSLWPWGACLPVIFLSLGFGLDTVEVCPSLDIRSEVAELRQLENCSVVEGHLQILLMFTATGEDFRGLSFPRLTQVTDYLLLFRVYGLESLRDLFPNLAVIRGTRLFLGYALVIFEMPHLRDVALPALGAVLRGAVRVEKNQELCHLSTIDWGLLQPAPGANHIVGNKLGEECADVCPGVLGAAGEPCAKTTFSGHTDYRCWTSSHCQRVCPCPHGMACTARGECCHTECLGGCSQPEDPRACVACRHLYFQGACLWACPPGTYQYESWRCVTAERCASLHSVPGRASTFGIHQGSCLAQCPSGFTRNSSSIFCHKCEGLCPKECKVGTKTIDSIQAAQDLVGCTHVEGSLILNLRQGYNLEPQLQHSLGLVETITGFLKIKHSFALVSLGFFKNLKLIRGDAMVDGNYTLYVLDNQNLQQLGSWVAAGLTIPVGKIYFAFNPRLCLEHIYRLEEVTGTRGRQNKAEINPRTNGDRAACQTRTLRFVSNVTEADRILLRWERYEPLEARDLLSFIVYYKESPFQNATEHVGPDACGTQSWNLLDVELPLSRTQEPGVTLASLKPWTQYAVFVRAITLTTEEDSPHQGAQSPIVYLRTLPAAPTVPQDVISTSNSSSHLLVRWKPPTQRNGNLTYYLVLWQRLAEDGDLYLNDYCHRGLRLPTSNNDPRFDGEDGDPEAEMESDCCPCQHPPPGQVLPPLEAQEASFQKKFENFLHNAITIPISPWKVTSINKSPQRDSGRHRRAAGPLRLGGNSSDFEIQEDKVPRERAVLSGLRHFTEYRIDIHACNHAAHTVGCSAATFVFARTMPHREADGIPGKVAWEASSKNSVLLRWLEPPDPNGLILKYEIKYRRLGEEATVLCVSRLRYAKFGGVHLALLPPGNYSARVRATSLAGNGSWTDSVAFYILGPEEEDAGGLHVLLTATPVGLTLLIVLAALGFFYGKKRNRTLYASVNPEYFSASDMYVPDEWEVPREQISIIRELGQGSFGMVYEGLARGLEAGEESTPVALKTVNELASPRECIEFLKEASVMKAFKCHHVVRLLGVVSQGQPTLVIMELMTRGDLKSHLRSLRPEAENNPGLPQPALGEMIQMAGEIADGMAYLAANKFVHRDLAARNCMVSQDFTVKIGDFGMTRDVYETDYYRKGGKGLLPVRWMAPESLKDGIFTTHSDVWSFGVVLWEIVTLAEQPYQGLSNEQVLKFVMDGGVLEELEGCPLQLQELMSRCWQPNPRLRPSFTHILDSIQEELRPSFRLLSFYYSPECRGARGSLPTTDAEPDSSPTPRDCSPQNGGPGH
Summary of the method: as §1

[12] = target: NLK(h) (Homo sapiens, UniProt Q9UBE8)
Chain of NLK(h) (Q9UBE8 whole entry): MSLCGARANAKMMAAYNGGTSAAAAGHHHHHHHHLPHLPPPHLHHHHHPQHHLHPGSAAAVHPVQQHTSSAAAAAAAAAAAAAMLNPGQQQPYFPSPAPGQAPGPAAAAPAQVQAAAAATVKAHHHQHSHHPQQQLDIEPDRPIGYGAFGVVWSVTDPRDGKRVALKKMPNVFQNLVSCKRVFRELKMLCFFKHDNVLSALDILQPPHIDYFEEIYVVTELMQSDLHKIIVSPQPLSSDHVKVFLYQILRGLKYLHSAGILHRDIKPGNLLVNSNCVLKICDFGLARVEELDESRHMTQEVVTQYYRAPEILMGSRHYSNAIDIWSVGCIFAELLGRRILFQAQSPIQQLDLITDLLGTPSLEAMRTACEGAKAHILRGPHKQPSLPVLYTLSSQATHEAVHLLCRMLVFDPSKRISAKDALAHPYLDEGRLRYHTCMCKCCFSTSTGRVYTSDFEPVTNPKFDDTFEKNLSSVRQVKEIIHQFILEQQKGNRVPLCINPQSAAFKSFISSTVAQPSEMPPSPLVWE
Summary of the method: as §1

[13] = target: T5, CaMKIß(h) (Homo sapiens, UniProt Q6P2M8)
T5 construct: gene PNCK
T5 sequence (Q6P2M8 whole entry): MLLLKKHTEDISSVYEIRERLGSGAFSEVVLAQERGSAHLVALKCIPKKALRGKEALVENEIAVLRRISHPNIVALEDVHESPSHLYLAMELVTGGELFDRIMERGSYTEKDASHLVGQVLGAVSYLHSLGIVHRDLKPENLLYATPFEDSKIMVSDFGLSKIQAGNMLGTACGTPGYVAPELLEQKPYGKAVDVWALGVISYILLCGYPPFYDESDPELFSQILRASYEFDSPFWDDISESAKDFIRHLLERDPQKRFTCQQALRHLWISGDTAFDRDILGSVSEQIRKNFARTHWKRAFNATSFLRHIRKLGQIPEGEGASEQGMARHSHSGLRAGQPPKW
Summary of the method: as §1

[14] = target: NUAK2(h) (Homo sapiens, UniProt Q9H093)
Summary of the method: as §1

[15] = target: EGFR(h) (Homo sapiens, UniProt P00533)
Chain of EGFR(h) (P00533 whole entry): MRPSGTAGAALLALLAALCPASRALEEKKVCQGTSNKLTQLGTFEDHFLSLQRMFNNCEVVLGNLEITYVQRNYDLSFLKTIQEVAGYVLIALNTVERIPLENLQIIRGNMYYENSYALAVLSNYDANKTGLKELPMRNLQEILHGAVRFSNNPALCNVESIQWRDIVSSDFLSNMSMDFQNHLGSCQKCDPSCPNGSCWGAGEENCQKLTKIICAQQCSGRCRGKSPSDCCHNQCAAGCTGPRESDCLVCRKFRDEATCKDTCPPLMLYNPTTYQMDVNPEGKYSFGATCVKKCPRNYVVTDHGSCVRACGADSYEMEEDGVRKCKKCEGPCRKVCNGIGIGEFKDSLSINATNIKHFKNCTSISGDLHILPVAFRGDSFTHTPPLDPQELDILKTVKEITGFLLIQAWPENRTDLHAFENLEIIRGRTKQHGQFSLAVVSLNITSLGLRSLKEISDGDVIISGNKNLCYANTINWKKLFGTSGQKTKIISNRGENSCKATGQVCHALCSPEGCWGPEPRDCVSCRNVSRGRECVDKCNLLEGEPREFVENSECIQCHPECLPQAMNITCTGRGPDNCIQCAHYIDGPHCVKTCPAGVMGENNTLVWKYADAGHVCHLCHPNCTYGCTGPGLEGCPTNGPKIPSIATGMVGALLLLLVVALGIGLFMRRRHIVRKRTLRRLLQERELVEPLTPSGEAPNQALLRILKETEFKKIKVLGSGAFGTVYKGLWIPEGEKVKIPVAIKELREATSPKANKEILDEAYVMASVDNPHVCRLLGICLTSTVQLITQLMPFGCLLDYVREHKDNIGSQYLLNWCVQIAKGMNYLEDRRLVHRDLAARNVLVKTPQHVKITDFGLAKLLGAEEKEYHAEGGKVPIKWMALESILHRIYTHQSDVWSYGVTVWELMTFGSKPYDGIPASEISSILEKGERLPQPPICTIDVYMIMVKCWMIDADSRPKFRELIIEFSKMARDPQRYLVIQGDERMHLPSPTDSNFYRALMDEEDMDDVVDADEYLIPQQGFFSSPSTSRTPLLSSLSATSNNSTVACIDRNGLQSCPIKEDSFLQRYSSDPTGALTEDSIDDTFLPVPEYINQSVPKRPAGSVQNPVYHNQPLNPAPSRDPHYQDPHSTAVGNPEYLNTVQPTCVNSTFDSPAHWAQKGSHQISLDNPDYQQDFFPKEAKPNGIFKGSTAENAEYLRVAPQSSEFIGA
Summary of the method: as §1

[16] = target: T6, ARK5(h) (Homo sapiens, UniProt O60285)
T6 construct: gene NUAK1
Summary of the method: as §1

[17] = target: T7, CaMKIγ(h) (Homo sapiens, UniProt Q96NX5)
T7 construct: gene CAMK1G
Summary of the method: as §1

[18] = target: T8, CaMKIIα(h) (Homo sapiens, UniProt Q9UQM7)
T8 construct: gene CAMK2A
Summary of the method: as §1

[19] = target: ATR/ATRIP(h) (Homo sapiens, UniProt Q13535)
Summary of the method: as §1

[20] = target: T9, BRK(h) (Homo sapiens, UniProt Q13882)
T9 construct: gene PTK6
Summary of the method: as §1

[21] = target: T10, CDK5/p25(h) (Homo sapiens, UniProt Q00535)
T10 construct: p25
Summary of the method: as §1

[22] = target: GRK5(h) (Homo sapiens, UniProt P34947)
Summary of the method: as §1

[23] = target: CDK13/cyclinK(h) (Homo sapiens, UniProt Q14004)
Summary of the method: as §1

**Q.** What does the source list for C1=C(c2nc(-c3cnn(C4CCNCC4)c3)cn3cc(-c4ccccc4)nc23)CCOC1 [YL-939]?
**A.** remaining activity at 10 µM [1]: 85%; remaining activity at 10 µM [2]: 102%; remaining activity at 10 µM [3]: 92%; remaining activity at 10 µM [4]: 74%; remaining activity at 10 µM [5]: 103%; remaining activity at 10 µM [6]: 56%; remaining activity at 10 µM [7]: 76%; remaining activity at 10 µM [8]: 88%; remaining activity at 10 µM [9]: 90%; remaining activity at 10 µM [10]: 100%; remaining activity at 10 µM [11]: 74%; remaining activity at 10 µM [12]: 86%; remaining activity at 10 µM [13]: 88%; remaining activity at 10 µM [14]: 72%; remaining activity at 10 µM [15]: 87%; remaining activity at 10 µM [16]: 93%; remaining activity at 10 µM [17]: 108%; remaining activity at 10 µM [18]: 64%; remaining activity at 10 µM [19]: 88%; remaining activity at 10 µM [20]: 109%; remaining activity at 10 µM [21]: 120%; remaining activity at 10 µM [22]: 72%; remaining activity at 10 µM [23]: 93%
